In paper PMC6494831, “Drug-like Fragments Inhibit agr-Mediated Virulence Expression in Staphylococcus aureus” (Scientific Reports, 2019):
Where two headings read alike, the source gives them in different places.

Molecular target: AgrA (Staphylococcus aureus, UniProt P0A0I7)
Experiment: ITC with purified AgrAC, one-site fit, N fixed to […]
Format: binding

Sequence of AgrA (P0A0I7 137-238): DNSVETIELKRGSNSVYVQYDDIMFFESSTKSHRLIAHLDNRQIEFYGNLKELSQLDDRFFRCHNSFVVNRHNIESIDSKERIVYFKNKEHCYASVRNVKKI

| SMILES | Kd (read-out: Kd) [µM] | Kd [µM] |
| --- | --- | --- |
| Cc1cc(O)cc(C)c1C#N [compound 3, 4-hydroxy-2,6-dimethylbenzonitrile] | 110 ± 45.6 | – |
| Cc1ccc(-c2nc(C(=O)O)cs2)cc1 [compound 2, 2-(4-methylphenyl)-1,3-thiazole-4-carboxylic acid] | – | 417 ± 62.9 |
| O=C(O)C1c2ccccc2Oc2ccccc21 [compound 1, 9H-xanthene-9-carboxylic acid] | – | 485 ± 39.3 |
